Compound in one assay: C[C@@H](Oc1cc(-c2cnn(C3CCNCC3)c2)cnc1N)c1c(Cl)ccc(F)c1Cl [CRIZOTINIB]
The experiment in a line: surviving fraction relative to DMSO-only wells; higher = less growth inhibition. Particulars: exposure time: 5 days. Summed up: (§1)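 In 384-well plates, 250–500 log-phase tumour cells per well were given 24 hours before five days of continuous exposure to inhibitors at 0.5, 1, 5, 10, 50, 100, 500 and 1000 nM. Surviving fraction is luminescence from CellTiter-Glo, normalised to the median of wells containing DMSO alone. Reading took place after 10 minutes at room temperature.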

Compound in a further assay: C[C@]12CC[C@H](O)CC1=CC[C@@H]1[C@@H]2CC[C@]2(C)C(c3cccnc3)=CC[C@@H]12 [ABIRATERONE]
The assay is described as above. The following applies: exposure time: 5 days. The procedure, abridged:
as §1

± gives the standard deviation of the averaged measurements.

Regarding MCF7 BREAST, the surviving fraction with CRIZOTINIB (0.5 nM) was determined as 0.963 ± 0.04; in the assay with CRIZOTINIB (5 nM), 0.967 ± 0.011; in the assay with CRIZOTINIB (10 nM), 0.968 ± 0.042; in the assay with CRIZOTINIB (50 nM), 1 ± 0.025; with CRIZOTINIB (100 nM), 0.981 ± 0.021; in the assay with CRIZOTINIB (500 nM), 1 ± 0.05. For the same test system, the surviving fraction in the assay with CRIZOTINIB (1000 nM) is 0.617 ± 0.035; with ABIRATERONE (0.5 nM), 0.961 ± 0.071; with ABIRATERONE (1 nM), 0.917 ± 0.059; with ABIRATERONE (5 nM), 0.902 ± 0.098; with ABIRATERONE (10 nM) it was 0.945 ± 0.027; with ABIRATERONE (50 nM), 1.01 ± 0.024. The surviving fraction worked out at 0.874 ± 0.039 in the assay with ABIRATERONE (100 nM), 1.05 ± 0.066 with ABIRATERONE (500 nM) and 0.921 ± 0.017 in the assay with ABIRATERONE (1000 nM).
Consider HOSMNG BONE, for which the surviving fraction with CRIZOTINIB (0.5 nM) came to 0.954 ± 0.09; with CRIZOTINIB (1 nM), 0.983 ± 0.1; with CRIZOTINIB (50 nM), 0.649 ± 0.012; with CRIZOTINIB (100 nM) it was 0.501 ± 0.017; in the assay with CRIZOTINIB (500 nM), 0.329 ± 0.032; with CRIZOTINIB (1000 nM) it was 0.227 ± 0.011. The surviving fraction turned out to be 0.985 ± 0.035 with ABIRATERONE (0.5 nM); 0.99 ± 0.049 with ABIRATERONE (1 nM); 1 ± 0.077 with ABIRATERONE (5 nM); 0.973 ± 0.039 in the assay with ABIRATERONE (10 nM); 1.08 ± 0.042 with ABIRATERONE (50 nM); 1.1 ± 0.087 in the assay with ABIRATERONE (100 nM). Moreover, the results for the surviving fraction with ABIRATERONE (500 nM) and with ABIRATERONE (1000 nM) were 1.05 ± 0.096 and 1.08 ± 0.014, respectively.
Consider U2OS BONE, for which the surviving fraction in the assay with CRIZOTINIB (0.5 nM) is 1.02 ± 0.026; in the assay with CRIZOTINIB (1 nM), 1.05 ± 0.033; in the assay with CRIZOTINIB (5 nM) it was 1.03 ± 0.042; with CRIZOTINIB (10 nM), 1.05 ± 0.029; with CRIZOTINIB (100 nM), 1.05 ± 0.013; in the assay with CRIZOTINIB (500 nM), 0.539 ± 0.023. Also, the surviving fraction with CRIZOTINIB (1000 nM) came out at 0.459 ± 0.033; with ABIRATERONE (0.5 nM), 1.04 ± 0.05; with ABIRATERONE (1 nM), 1.03 ± 0.029; with ABIRATERONE (5 nM) it was 1.1 ± 0.035; in the assay with ABIRATERONE (10 nM), 1.096 ± 0.004; with ABIRATERONE (50 nM) it was 1.19 ± 0.031. Also, the surviving fraction is 1.08 ± 0.022 in the assay with ABIRATERONE (100 nM), 1.1 ± 0.016 with ABIRATERONE (500 nM) and 1.09 ± 0.032 with ABIRATERONE (1000 nM).
With CADOES1 SOFT TISSUE, the surviving fraction amounted to 0.892 ± 0.084 in the assay with CRIZOTINIB (1 nM); 0.953 ± 0.13 with CRIZOTINIB (5 nM); 0.91 ± 0.11 in the assay with CRIZOTINIB (10 nM); 0.902 ± 0.073 in the assay with CRIZOTINIB (50 nM); 0.949 ± 0.077 in the assay with CRIZOTINIB (100 nM); 0.713 ± 0.18 in the assay with CRIZOTINIB (500 nM). Besides, the surviving fraction was found to be 0.314 ± 0.06 with CRIZOTINIB (1000 nM); 0.958 ± 0.12 in the assay with ABIRATERONE (0.5 nM); 1.03 ± 0.061 in the assay with ABIRATERONE (1 nM); 0.978 ± 0.11 with ABIRATERONE (5 nM); 0.943 ± 0.04 with ABIRATERONE (10 nM); 1 ± 0.025 with ABIRATERONE (50 nM). Also, the results for the surviving fraction with ABIRATERONE (100 nM), with ABIRATERONE (500 nM) and with ABIRATERONE (1000 nM) were 1.11 ± 0.055, 1.04 ± 0.14 and 0.955 ± 0.061, respectively.
Consider SG32 HEADNECK, for which the surviving fraction amounted to 1.09 ± 0.096 in the assay with CRIZOTINIB (0.5 nM); 1.05 ± 0.096 with CRIZOTINIB (1 nM); 1.21 ± 0.066 with CRIZOTINIB (5 nM); 0.936 ± 0.088 in the assay with CRIZOTINIB (10 nM); 1.01 ± 0.12 with CRIZOTINIB (100 nM); 0.541 ± 0.036 with CRIZOTINIB (500 nM). In addition, the surviving fraction with CRIZOTINIB (1000 nM) was found to be 0.352 ± 0.016; in the assay with ABIRATERONE (0.5 nM), 1.18 ± 0.12; in the assay with ABIRATERONE (1 nM), 1.29 ± 0.2; with ABIRATERONE (5 nM) it was 1.13 ± 0.2; with ABIRATERONE (10 nM), 1.22 ± 0.11; with ABIRATERONE (50 nM) it was 1.15 ± 0.05. The surviving fraction with ABIRATERONE (100 nM) amounted to 1.17 ± 0.12; in the assay with ABIRATERONE (500 nM), 1.13 ± 0.16; in the assay with ABIRATERONE (1000 nM) it was 1.21 ± 0.19.
For HT1080 SOFT TISSUE, the surviving fraction worked out at 1.07 ± 0.038 with CRIZOTINIB (0.5 nM); 1.07 ± 0.028 with CRIZOTINIB (1 nM); 1.07 ± 0.016 with CRIZOTINIB (5 nM); 1.06 ± 0.017 with CRIZOTINIB (10 nM); 1.04 ± 0.062 with CRIZOTINIB (50 nM); 1.07 ± 0.052 with CRIZOTINIB (100 nM). Moreover, the surviving fraction with CRIZOTINIB (500 nM) was determined as 1.02 ± 0.042; with CRIZOTINIB (1000 nM), 0.798 ± 0.064; with ABIRATERONE (0.5 nM) it was 1.01 ± 0.013; with ABIRATERONE (1 nM), 1.05 ± 0.015; in the assay with ABIRATERONE (5 nM), 1.03 ± 0.012; in the assay with ABIRATERONE (10 nM) it was 1.02 ± 0.017. For the same test system, the surviving fraction amounted to 1.01 ± 0.023 in the assay with ABIRATERONE (50 nM), 1.02 ± 0.02 with ABIRATERONE (100 nM), 1.04 ± 0.027 in the assay with ABIRATERONE (500 nM) and 0.997 ± 0.019 with ABIRATERONE (1000 nM).
For CME SYNOVIAL, the surviving fraction was 1.23 ± 0.11 with CRIZOTINIB (0.5 nM); 1.23 ± 0.1 with CRIZOTINIB (1 nM); 1.36 ± 0.16 in the assay with CRIZOTINIB (5 nM); 1.21 ± 0.1 with CRIZOTINIB (50 nM); 1.18 ± 0.022 in the assay with CRIZOTINIB (100 nM); 0.65 ± 0.035 with CRIZOTINIB (500 nM). For the same test system, the surviving fraction was determined as 0.286 ± 0.033 with CRIZOTINIB (1000 nM); 1.28 ± 0.1 with ABIRATERONE (0.5 nM); 1.38 ± 0.15 in the assay with ABIRATERONE (1 nM); 1.43 ± 0.15 with ABIRATERONE (5 nM); 1.29 ± 0.086 with ABIRATERONE (10 nM); 1.37 ± 0.17 in the assay with ABIRATERONE (50 nM). Moreover, the surviving fraction with ABIRATERONE (100 nM) came to 1.37 ± 0.029; with ABIRATERONE (500 nM), 1.34 ± 0.18; in the assay with ABIRATERONE (1000 nM) it was 1.2 ± 0.18.
In the case of HCC1954 BREAST, the surviving fraction in the assay with CRIZOTINIB (0.5 nM) was found to be 1.16 ± 0.14; with CRIZOTINIB (1 nM), 1.25 ± 0.11; in the assay with CRIZOTINIB (10 nM), 1.55 ± 0.21; with CRIZOTINIB (50 nM) it was 1.03 ± 0.18; in the assay with CRIZOTINIB (100 nM), 0.987 ± 0.06; with CRIZOTINIB (500 nM) it was 0.831 ± 0.082. In addition, the surviving fraction is 0.689 ± 0.12 in the assay with CRIZOTINIB (1000 nM); 0.838 ± 0.082 with ABIRATERONE (0.5 nM); 1.01 ± 0.13 in the assay with ABIRATERONE (1 nM); 1.05 ± 0.088 with ABIRATERONE (5 nM); 1.13 ± 0.12 with ABIRATERONE (10 nM); 1.09 ± 0.23 in the assay with ABIRATERONE (50 nM). Further, the surviving fraction came to 1.12 ± 0.041 with ABIRATERONE (100 nM), 1.08 ± 0.086 in the assay with ABIRATERONE (500 nM) and 1.02 ± 0.014 with ABIRATERONE (1000 nM).
Turning to MDAMB361 BREAST, the surviving fraction with CRIZOTINIB (0.5 nM) was found to be 0.815 ± 0.053; with CRIZOTINIB (1 nM), 0.898 ± 0.094; with CRIZOTINIB (5 nM), 0.881 ± 0.035; in the assay with CRIZOTINIB (10 nM) it was 0.848 ± 0.079; with CRIZOTINIB (50 nM), 0.828 ± 0.07; in the assay with CRIZOTINIB (500 nM), 0.882 ± 0.067. Besides, the surviving fraction with CRIZOTINIB (1000 nM) was determined as 1.03 ± 0.095; with ABIRATERONE (0.5 nM), 0.881 ± 0.035; in the assay with ABIRATERONE (1 nM) it was 0.872 ± 0.096; in the assay with ABIRATERONE (5 nM), 0.82 ± 0.045; in the assay with ABIRATERONE (10 nM) it was 0.825 ± 0.076; with ABIRATERONE (50 nM) it was 1.53 ± 0.14. Further, the surviving fraction is 0.91 ± 0.04 in the assay with ABIRATERONE (100 nM), 0.837 ± 0.072 in the assay with ABIRATERONE (500 nM) and 0.719 ± 0.07 with ABIRATERONE (1000 nM).
